Reference: patent US9067937B2 (priority 2012, dated 2015)
“And” between values parts separate entries of the source, which are not always exact repeats. Identical values can stand only once. Counter-ions that a name gives are not always drawn. Like-named read-outs stand apart in the source and are kept apart here.

Tests used:
22Rv1 cells = assay: Cell-based assay, anti-proliferative activity (Cell Counting Kit-8, 72 hours); set-up: species or system human
Outline: (§1)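 Cells seeded at 2,000–3,000 cells/well and exposed to candidate MELK inhibitors for 72 hours; growth measured with Cell Counting Kit-8. IC50 values calculated from the growth read-out.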

A549 cells = assay: as above; set-up: species or system human
Outline: as §1

DU4475 cells = assay: as above; set-up: species or system human
Outline: as §1

T47D cells = assay: as above; set-up: species or system human
Outline: as §1

HT1197 cells = assay: Cell-based assay, anti-proliferative activity, MELK-negative control (Cell Counting Kit-8, 72 hours); set-up: species or system human
Procedure: 100 micro-L of cell suspension was seeded onto 96-well microtiter plate (ViewPlate-96FTC, PerkinElmer). The initial cell concentration of 22Rv1, T47D, A549, DU4475, and HT1197 were 3,000 cells/well, 2,000 cells/well and 2,500 cells/well, respectively. Cellular growth was determined using Cell Counting Kit-8 (DOJINDO) at 72 hours after the exposure of the candidate inhibitors. […] Accurate IC50 values were calculated as described previously.

MDA-MB-231 xenografts = assay: Xenograft model antitumor assay; set-up: species or system mice; settings: mouse, in vivo; dihydrochloride
DU145 xenografts = assay: Xenograft model antitumor assay; set-up: species or system mice; settings: mouse, in vivo
MIAPaCa-2 xenografts = assay: Xenograft model antitumor assay; set-up: species or system mice; settings: mouse, in vivo
PC-14 xenografts = assay: Xenograft model antitumor assay (MELK-negative); format: in vivo, mice; settings: PC-14 (MELK hardly detectable), 10 mg/kg oral once a day, 14 days
MELK = MELK (Homo sapiens, UniProt Q14680); assay: Kinase assay (IMAP fluorescence polarization, FITC-labeled histone H3 peptide); format: biochemical; settings: 50 micro-M ATP
Chain of MELK (Q14680 whole entry, looked up): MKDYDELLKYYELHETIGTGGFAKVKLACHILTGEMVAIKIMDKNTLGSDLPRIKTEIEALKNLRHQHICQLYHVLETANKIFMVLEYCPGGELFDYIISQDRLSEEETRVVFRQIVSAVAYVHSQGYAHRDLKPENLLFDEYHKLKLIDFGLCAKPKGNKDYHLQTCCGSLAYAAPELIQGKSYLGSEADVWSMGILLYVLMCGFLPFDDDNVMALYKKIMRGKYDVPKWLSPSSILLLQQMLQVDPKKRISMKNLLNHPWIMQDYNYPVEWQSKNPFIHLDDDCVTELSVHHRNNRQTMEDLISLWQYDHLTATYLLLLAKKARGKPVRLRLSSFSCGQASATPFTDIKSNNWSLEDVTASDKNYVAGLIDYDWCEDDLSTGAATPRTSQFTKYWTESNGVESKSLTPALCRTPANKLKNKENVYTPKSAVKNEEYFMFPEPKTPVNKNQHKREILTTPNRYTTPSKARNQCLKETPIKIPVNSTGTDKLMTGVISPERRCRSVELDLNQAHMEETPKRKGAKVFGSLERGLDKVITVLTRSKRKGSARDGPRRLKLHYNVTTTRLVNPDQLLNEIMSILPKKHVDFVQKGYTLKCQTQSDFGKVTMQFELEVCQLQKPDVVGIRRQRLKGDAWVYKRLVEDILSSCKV
Outline: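 Kinase (0.8 ng/μL) reacted with 100 nM FITC-histone H3 peptide and 50 μM ATP in 20 mM HEPES, 0.3 mM MgCl2, 2 mM DTT, 0.01% Tween-20, pH 7.4, for 1 hour at room temperature. Phosphorylation read by IMAP fluorescence polarization after adding binding solution; IC50 from four-parameter fit.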

[1] = Homo sapiens, 22Rv1, 72 h, read-out: IC50 (μM) (22Rvl)
[2] = Homo sapiens, A549, 72 h, read-out: IC50 (μM) (A549)
[3] = Homo sapiens, DU-4475, 72 h, read-out: IC50 (μM) (DU4475)
[4] = Homo sapiens, T47D, 72 h, read-out: IC50 (μM) (T47D)
[5] = Homo sapiens, HT1197, 72 h, read-out: IC50 (μM) (HTll97)
[6] = 22Rv1 cells, 72 hours, read-out: IC50 (μM) (22Rvl)
[7] = A549 cells, 72 hours, read-out: IC50 (μM) (A549)
[8] = DU4475 cells, 72 hours, read-out: IC50 (μM) (DU4475)
[9] = T47D cells, 72 hours, read-out: IC50 (μM) (T47D)
[10] = HT1197 cells (MELK-negative control), 72 hours, read-out: IC50 (μM) (HTll97)

Compound: CC(=O)c1cnc2ccc(-c3cc(Cl)c(O)c(Cl)c3)nc2c1N[C@H]1CC[C@H](CN(C)C)CC1 [Example 6, 1-{6-(3,5-Dichloro-4-hydroxyphenyl)-4-({trans-4-[(dimethylamino)methyl]cyclohexyl}amino)-1,5-naphthyridin-3-yl}ethanone dihydrochloride]
- IC50 (22Rv1 cells; [1]): 0.0052 µM
- IC50 (22Rv1 cells; Homo sapiens, 22Rv1, read-out: IC50, in vitro anti-proliferative assay): 0.006 µM
- IC50 (A549 cells; [2]): 0.0089 µM
- IC50 (A549 cells; Homo sapiens, A549, read-out: IC50, in vitro anti-proliferative assay): 0.0067 µM
- IC50 (DU4475 cells; [3]): 0.0033 µM
- IC50 (DU4475 cells; Homo sapiens, DU-4475, read-out: IC50, in vitro anti-proliferative assay): 0.0023 µM
- IC50 (T47D cells; [4]): 0.0053 µM
- IC50 (T47D cells; Homo sapiens, T47D, read-out: IC50, in vitro anti-proliferative assay): 0.0043 µM
- IC50 (HT1197 cells; [5]): 0.12 µM
- IC50 (HT1197 cells; Homo sapiens, HT1197, read-out: IC50, in vitro anti-proliferative assay): 0.097 µM
- Tumor growth inhibition (TGI) (MDA-MB-231 xenografts): 73% and 72%
- Tumor growth inhibition (TGI) (DU145 xenografts): 106%
- Tumor growth inhibition (TGI) (MIAPaCa-2 xenografts): 87%
- Tumor growth suppressive effect (PC-14 xenografts): no tumor growth suppressive effect

Compound: CCC(=O)c1cnc2ccc(-c3cc(F)c(O)c(Cl)c3)nc2c1N[C@H]1CC[C@H](CN(C)C)CC1 [Example 205, 1-[6-(3-chloro-5-fluoro-4-hydroxyphenyl)-4-({trans-4-[(dimethylamino)methyl]cyclohexyl}amino)-1,5-naphthyridin-3-yl)]propan-1-one dihydrochloride]
- IC50 (MELK): 0.0028 µM
- IC50 (22Rv1 cells; [1]): 0.022 µM
- IC50 (A549 cells; [2]): 0.032 µM
- IC50 (DU4475 cells; [3]): 0.033 µM
- IC50 (T47D cells; [4]): 0.0083 µM
- IC50 (HT1197 cells; [5]): 0.69 µM

Compound: CCC(=O)c1cnc2ccc(-c3cc(Cl)c(O)c(Cl)c3)nc2c1N[C@H]1CC[C@H](CN(C)C)CC1 [Example 206, 1-[6-(3,5-dichloro-4-hydroxyphenyl)-4-({trans-4-[(dimethylamino)methyl]cyclohexyl}amino)-1,5-naphthyridin-3-yl)]propan-1-one dihydrochloride]
- IC50 (MELK): 0.0013 µM
- IC50 (22Rv1 cells; [1]): 0.022 µM
- IC50 (A549 cells; [2]): 0.061 µM
- IC50 (DU4475 cells; [3]): 0.023 µM
- IC50 (T47D cells; [4]): 0.01 µM
- IC50 (HT1197 cells; [5]): 10 µM

Compound: CCC(=O)c1cnc2ccc(-c3cc(Cl)c(O)c(Cl)c3)nc2c1Nc1ccc(N2CCC[C@H](N)C2)nc1 [Example 207, (S)-1-(4-{[6-(3-aminopiperidin-1-yl)pyridin-3-yl]amino}-6-(3,5-dichloro-4-hydroxyphenyl)-1,5-naphthyridin-3-yl)propan-1-one trihydrochloride]
- IC50 (MELK): 0.0016 µM
- IC50 (22Rv1 cells; [1]): 0.034 µM
- IC50 (A549 cells; [2]): 0.098 µM
- IC50 (DU4475 cells; [3]): 0.024 µM
- IC50 (T47D cells; [4]): 0.018 µM
- IC50 (HT1197 cells; [5]): 3.9 µM

Compound: CCC(=O)c1cnc2ccc(-c3cc(F)c(O)c(Cl)c3)nc2c1Nc1ccc(N2CCC[C@H](N)C2)nc1 [Example 208, (S)-1-(4{[6-(3-aminopiperidin-1-yl)pyridin-3-yl]amino}-6-(3-chloro-5-fluoro-4-hydroxyphenyl)-1,5-naphthyridin-3-yl)propan-1-one trihydrochloride]
- IC50 (MELK): 0.0026 µM
- IC50 (22Rv1 cells; [1]): 0.026 µM
- IC50 (A549 cells; [2]): 0.063 µM
- IC50 (DU4475 cells; [3]): 0.021 µM
- IC50 (T47D cells; [4]): 0.015 µM
- IC50 (HT1197 cells; [5]): 0.86 µM

Compound: CC(=O)c1cnc2ccc(-c3cc(Cl)c(O)c(Cl)c3)nc2c1N[C@H]1CC[C@H](CN2CC[C@@H](F)C2)CC1 [Example 209, 1-[6-(3,5-dichloro-4-hydroxyphenyl)-4-({4-[((R)-3-fluoropyrrolidin-1yl)methyl]cyclohexyl}amino)-1,5-naphthyridin-3-yl]ethanone dihydrochloride]
- IC50 (MELK): 0.002 µM
- IC50 (22Rv1 cells; [1]): 0.032 µM
- IC50 (A549 cells; [2]): 0.037 µM
- IC50 (DU4475 cells; [3]): 0.01 µM
- IC50 (T47D cells; [4]): 0.036 µM
- IC50 (HT1197 cells; [5]): 0.12 µM

Compound: N[C@H]1CCCN(c2ccc(Nc3c(C(=O)C4CCC4)cnc4ccc(-c5cc(F)c(O)c(Cl)c5)nc34)cn2)C1 [Example 210, (S)-(4-((6-(3-aminopiperidin-1-yl)pyridin-3-yl)amino)-6-(3-chloro-5-fluoro-4-hydroxyphenyl)-1,5-naphthyridin-3-yl)(cyclobutyl)methanone dihydrochloride]
- IC50 (MELK): 0.0014 µM
- IC50 (22Rv1 cells; [1]): 0.017 µM
- IC50 (A549 cells; [2]): 0.042 µM
- IC50 (DU4475 cells; [3]): 0.022 µM
- IC50 (T47D cells; [4]): 0.0093 µM
- IC50 (HT1197 cells; [5]): 1.4 µM

Compound: CN(C)C[C@H]1CC[C@H](Nc2c(C(=O)C3CCC3)cnc3ccc(-c4cc(Cl)c(O)c(Cl)c4)nc23)CC1 [Example 211, (6-(3,5-dichloro-4-hydroxyphenyl)-4-((4-[(dimethylamino)methyl{cyclohexyl)amino)-1,5-naphthyridin-3-yl) (cyclobutyl)methanone dihydrochloride]
- IC50 (MELK): 0.0027 µM
- IC50 (22Rv1 cells; [1]): 0.0072 µM
- IC50 (A549 cells; [2]): 0.0076 µM
- IC50 (DU4475 cells; [3]): 0.003 µM
- IC50 (T47D cells; [4]): 0.0034 µM
- IC50 (HT1197 cells; [5]): 0.0077 µM

Compound: CN(C)C[C@H]1CC[C@H](Nc2c(C(=O)C3CCC3)cnc3ccc(-c4cc(F)c(O)c(Cl)c4)nc23)CC1 [Example 212, (6-(3-chloro-5-fluoro-4-hydroxyphenyl)-4-((4-((dimethylamino)methyl)cyclohexyl)amino)-1,5-naphthyridin-3-yl)(cyclobutyl)methanone dihydrochloride]
- IC50 (MELK): 0.0016 µM
- IC50 (22Rv1 cells; [1]): 0.013 µM
- IC50 (A549 cells; [2]): 0.014 µM
- IC50 (DU4475 cells; [3]): 0.003 µM
- IC50 (T47D cells; [4]): 0.0074 µM
- IC50 (HT1197 cells; [5]): 0.014 µM

Compound: CCC(=O)c1cnc2ccc(-c3cc(Cl)c(O)c(Cl)c3)nc2c1Nc1ccc(N2CCC[C@@H](N)C2)nc1 [Example 214, (R)-1-(4-((6-(3-aminopiperidin-1-yl)pyridin-3-yl)amino)-6-(3,5-dichloro-4-hydroxyphenyl)-1,5-naphthyridin-3-yl)propan-1-one trihydrochloride]
- IC50 (MELK): 0.0013 µM
- IC50 (22Rv1 cells; [1]): 0.0059 µM
- IC50 (A549 cells; [2]): 0.013 µM
- IC50 (DU4475 cells; [3]): 0.004 µM
- IC50 (T47D cells; [4]): 0.0028 µM
- IC50 (HT1197 cells; [5]): 0.34 µM

Compound: (R)-1-(4-{[6-(3-aminopiperidin-1- yl)pyridin-3-yl]amino}-6-(3,5- dichloro-4-hydroxyphenyl)-1,5- naphthyridin-3-yl)-2-methylpropan-1- one trihydrochloride [Example 215]
- IC50 (MELK): 0.0065 µM
- IC50 (22Rv1 cells; [6]): 0.032 µM
- IC50 (A549 cells; [7]): 0.083 µM
- IC50 (DU4475 cells; [8]): 0.014 µM
- IC50 (T47D cells; [9]): 0.016 µM
- IC50 (HT1197 cells; [10]): 1.7 µM

Compound: (S)-(4-{[6-(3-aminopiperidin-1- yl)pyridin-3-yl]amino}-6-(3-chloro-5- fluoro-4-hydroxyphenyl)-1,5- naphthyridin-3- yl)(cyclobutyl)methanone [Example 213]
- IC50 (MELK): 0.0011 µM
- IC50 (22Rv1 cells; [6]): 0.0071 µM
- IC50 (A549 cells; [7]): 0.029 µM
- IC50 (DU4475 cells; [8]): 0.003 µM
- IC50 (T47D cells; [9]): 0.0043 µM
- IC50 (HT1197 cells; [10]): 1.7 µM
